Reference: US11649229B2, “Amide compounds for treatment of immune and inflammatory disorders” (Achillion Pharmaceuticals, Inc., priority 2015, dated 2023)

Target: Human Factor D (Homo sapiens (Human), UniProt P00746)
Assay: Human Factor D assay
Type: biochemical
Conditions: Human Factor D 80 nM, substrate Z-L-Lys-SBzl, assay of Example 12
Protocol: Human Factor D (purified from human serum, Complement Technology, Inc.) at 80 nM final concentration is incubated with test compound at various concentrations for 5 minutes at room temperature in 50 mM Tris, 1M NaCl, pH 7.5. A synthetic substrate Z-L-Lys-SBzl and DTNB (Ellman's reagent) are added to final concentrations of 100 μM each. Absorbance at 405 nm (A405) is recorded at 30 second intervals for 30 minutes using a microplate spectrophotometer. IC50 values are calculated by nonlinear regression of complement Factor D reaction rates as a function of test compound concentration.
The assay of Example 12 was used to determine the IC50's of the compounds. Other standard Factor D inhibition assays are also available.

Chain of Human Factor D (P00746 26-253): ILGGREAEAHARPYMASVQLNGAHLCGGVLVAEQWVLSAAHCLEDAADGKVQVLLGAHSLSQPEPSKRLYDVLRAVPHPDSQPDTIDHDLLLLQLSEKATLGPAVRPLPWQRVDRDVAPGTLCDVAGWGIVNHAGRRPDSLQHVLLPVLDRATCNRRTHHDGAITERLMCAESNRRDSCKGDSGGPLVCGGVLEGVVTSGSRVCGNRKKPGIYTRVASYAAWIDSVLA

For Cc1cccc(NC(=O)[C@@H]2CCC(F)CCN2C(=O)Cn2cc(C(N)=O)c3cc(C(=O)NS(=O)(=O)C4CC4)ccc32)n1 (stereo partly drawn) [compound 8, N5-(cyclopropylsulfonyl)-1-(2-((2S)-5-fluoro-2-((6-methylpyridin-2-yl)carbamoyl)azepan-1-yl)-2-oxoethyl)-1H-indole-3,5-dicarboxamide], the IC50 was greater than 10 µM.
